Data taken from the supplement of paper PMC13380429.

Key:
Caco-2 [1] = test: cell viability relative to DMSO; higher = less toxic; conditions: 72 h
Calu-3 [2] = test: as above; conditions: 72 h
HepG2 [3] = test: as above; conditions: 72 h
Vero E6 [4] = test: as above; conditions: 72 h
U2OS [5] = test: as above; conditions: 72 h
[6] = tested on: A549-ACE2 infected with SARS-CoV-2; test: cell count relative to DMSO; higher = less toxic; conditions: 24 h
Caco-2 [7] = test: relative viability EC50 (midpoint between 100% and the lowest measured viability); higher = less toxic; conditions: 72 h
Calu-3 [8] = test: as above; conditions: 72 h
HepG2 [9] = test: as above; conditions: 72 h
U2OS [10] = test: as above; conditions: 72 h
[11] = tested on: A549-ACE2 infected with SARS-CoV-2; test: morphology score (similarity to uninfected cells); higher = more like uninfected cells; conditions: 24 h
A549-ACE2 [12] = test: drug-induced phospholipidosis relative to tamoxifen; higher = more phospholipidosis
[13] = tested on: A549-ACE2 infected with SARS-CoV-2; test: SARS-CoV-2 infection rate relative to DMSO; higher = more infection; conditions: 24 h
Caco-2 [14] = test: drug sensitivity score (DSS) for viability; higher = more toxic; extreme values may be limits of the assay; conditions: 72 h
Calu-3 [15] = test: as above; conditions: 72 h
HepG2 [16] = test: as above; conditions: 72 h
Vero E6 [17] = test: as above; conditions: 72 h
U2OS [18] = test: as above; conditions: 72 h
Vero E6 [19] = test: relative viability EC50 (midpoint between 100% and the lowest measured viability); higher = less toxic; conditions: 72 h
A549-ACE2 [20] = test: phospholipidosis EC50; higher = less potent phospholipidosis inducer; conditions: 24 h

CNC(=O)c1cc(Oc2ccc(NC(=O)Nc3ccc(Cl)c(C(F)(F)F)c3)cc2)ccn1 [sorafenib]
Conditions	SARS-CoV-2 infection rate, [13] [%]	cell count, [6] [%]	cell viability, Caco-2 [1] [%]	cell viability, Calu-3 [2] [%]	cell viability, HepG2 [3] [%]	cell viability, U2OS [5] [%]	cell viability, Vero E6 [4] [%]	morphology score, [11]
1 nM	–	–	95.1	107	105	98.7	97.4	–
10 nM	–	–	93.2	104	113	99.1	98.9	–
100 nM	–	–	96.1	109	99.2	103	104	–
0.1 µM	110	97	–	–	–	–	–	-0.27
0.3 µM	103	101	–	–	–	–	–	-0.32
1000 nM	–	–	99.1	108	80.5	111	113	–
1 µM	116	92	–	–	–	–	–	-0.4
3 µM	103	93	–	–	–	–	–	-0.27
10000 nM	–	–	47.9	82.2	12.7	39.7	55.6	–

Conditions	drug sensitivity score	relative viability EC50 [µM]
Caco-2 [7]	–	3.04
Caco-2 [14]	2.9	–
Calu-3 [8]	–	> 10
Calu-3 [15]	0.2	–
HepG2 [9]	–	1.64
HepG2 [16]	7.9	–
U2OS [10]	–	3.88
U2OS [18]	2.6	–
Vero E6 [17]	1.7	–

drug-induced phospholipidosis [%], A549-ACE2 [12]
Conditions	0.3 µM	0.833333 µM	3.33333 µM	6.66667 µM	10 µM	30 µM
24 h	-0.66	-4.32	-10.5	-0.85	-20.6	-18.5
48 h	0.68	-2.57	-3.57	0.31	–	–
72 h	3.23	-1.46	-1.25	-4.18	–	–

Cc1c(O)cccc1C(=O)N[C@@H](CSc1ccccc1)[C@H](O)CN1C[C@H]2CCCC[C@H]2C[C@H]1C(=O)NC(C)(C)C [nelfinavir]
Conditions	SARS-CoV-2 infection rate, [13] [%]	cell count, [6] [%]	cell viability, Caco-2 [1] [%]	cell viability, Calu-3 [2] [%]	cell viability, HepG2 [3] [%]	cell viability, U2OS [5] [%]	cell viability, Vero E6 [4] [%]	morphology score, [11]
1 nM	–	–	104	101	107	98.2	105	–
10 nM	–	–	93.4	87.1	96.7	92.5	99.7	–
100 nM	–	–	95.1	137	89.5	96.8	88.6	–
0.3 µM	95	104	–	–	–	–	–	0.27
1000 nM	–	–	70.1	109	90.2	93.5	97.3	–
3 µM	102	96	–	–	–	–	–	0.2
10000 nM	–	–	78.7	86.7	76.4	86.9	93.6	–
10 µM	69	113	–	–	–	–	–	0.69
30 µM	10	97	–	–	–	–	–	0.42

Conditions	drug sensitivity score	phospholipidosis EC50 [µM]	relative viability EC50 [µM]
A549-ACE2 [20]	–	11.6	–
Caco-2 [14]	5.8	–	–
Calu-3 [8]	–	–	> 10
Calu-3 [15]	0	–	–
HepG2 [9]	–	–	> 10
HepG2 [16]	1.8	–	–
U2OS [10]	–	–	> 10
U2OS [18]	0	–	–
Vero E6 [17]	0	–	–
Vero E6 [19]	–	–	> 10

drug-induced phospholipidosis [%], A549-ACE2 [12]
Conditions	0.3 µM	0.833333 µM	3.33333 µM	6.66667 µM	10 µM	30 µM
24 h	1.63	2.14	9.03	22.8	35.3	64.7
48 h	1.06	-2.76	10.6	21.3	40.6	–
72 h	1.29	-2.99	4.63	19.4	37	–
